Measurements reported in US9162991B2 (University of Ottawa, priority 2007, dated 2015).
Entries after “also recorded” stand apart in the source; their conditions may differ. Read-outs that look alike come from different tables or passages of the source.

Target: recombinant guinea pig liver TGase (Cavia cutleri (Guinea pig), UniProt P08587)
Experiment: biochemical
Type: biochemical
Description: ENZYME INHIBITION BY COMPOUNDS 14a-c, 14l, 15a, 15d-k, 15m-q, 30a, 30r, 30t, 37a and 38a: For enzymology studies of these compounds, recombinant guinea pig liver TGase was expressed in Escherichia coli and effectively purified (Gillet, S. M. F. G. et al J. N., Prot. Exp. & Purif. 2004, 33, 256).
The mode of inhibition was determined for the representative lead compound 14a through non-linear regression of initial rate data to the Michaelis-Menten equation (FIG. 1).
For the ensuing enzymatic tests, recombinant guinea pig liver TGase was expressed in E. Coli and effectively purified.
Kinetic runs were recorded on a Cary 100 BIO UV-Visible spectrophotometer at 405 nm and 25° C., in a buffer composed of 50 mM CaCl2, 50 μM EDTA and 0.1 M MOPS (pH 7.0). All aqueous solutions were prepared using de-ionized water purified from the Millipore BioCell system. […] Factor XIIIa activity was measured using a coupled-enzyme assay (Day, N.; Keillor, J. W. Anal. Biochem. 1999, 274, 141). Factor XIIIa, was added to a final concentration of 0.89 μg/mL to a pH 8.5 solution (0.1 M Tris-HCl, 5 mM CaCl2 and 10 mM DDT) of 0.5 mM β-NADH, 3.3 mM Na-acetyl-L-lysine methyl ester, 10 mM α-ketoglutaric acid sodium salt and 297 μg/mL glutamate dehydrogenase (GDH).

[1] = Table 1, substituent on the cinnamoyl aromatic group, read-out: IC50 (μM), class symbol
[2] = Table 1, value in brackets, read-out: IC50
[3] = Table 3, influence of the acylated moiety, read-out: IC50 (μM), class symbol
[4] = Table 3, value in brackets, read-out: IC50
[5] = Table 2, influence of the cinnamoyl double bond, read-out: IC50 (μM), class symbol
[6] = Table 2, value in brackets or words, read-out: IC50

Sequence of recombinant guinea pig liver TGase (P08587 whole entry): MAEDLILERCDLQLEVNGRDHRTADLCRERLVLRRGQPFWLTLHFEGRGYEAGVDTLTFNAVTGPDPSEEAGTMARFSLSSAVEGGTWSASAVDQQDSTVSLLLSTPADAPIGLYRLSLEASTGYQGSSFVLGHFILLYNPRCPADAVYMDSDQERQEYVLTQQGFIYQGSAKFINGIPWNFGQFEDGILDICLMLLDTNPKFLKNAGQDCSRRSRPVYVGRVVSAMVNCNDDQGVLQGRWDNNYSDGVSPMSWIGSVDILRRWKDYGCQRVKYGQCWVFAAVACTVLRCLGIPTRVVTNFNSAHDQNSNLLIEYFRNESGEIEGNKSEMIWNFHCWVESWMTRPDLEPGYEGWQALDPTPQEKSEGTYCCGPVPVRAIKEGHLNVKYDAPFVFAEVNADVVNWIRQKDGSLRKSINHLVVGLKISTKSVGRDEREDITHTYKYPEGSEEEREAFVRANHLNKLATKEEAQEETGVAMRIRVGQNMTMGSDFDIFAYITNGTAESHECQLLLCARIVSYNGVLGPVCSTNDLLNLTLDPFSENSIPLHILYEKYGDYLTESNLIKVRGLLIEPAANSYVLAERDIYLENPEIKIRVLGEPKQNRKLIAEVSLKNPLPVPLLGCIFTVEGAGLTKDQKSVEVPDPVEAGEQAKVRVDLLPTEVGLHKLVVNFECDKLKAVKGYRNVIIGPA

O=C(/C=C/c1ccccc1Cl)n1nnc2ccccc21 [Compound 15m, o-Chlorocinnamoyl benzotriazolyl amide]
IC50 [1]: > 50 µM | IC50 [2]: > 100 µM

O=C(/C=C/c1ccc([N+](=O)[O-])cc1)c1cn(CC2CCCCC2)nn1 [Compound 4f, (E)-1-(1-(cyclohexylmethyl)-1H-1,2,3-triazol-4-yl)-3-(4-nitrophenyl)prop-2-en-1-one]
IC50: < 20 µM | loss in potency (fold): 2.5 fold | IC50 (read-out: IC50): 11 µM

O=C(/C=C/c1ccc([N+](=O)[O-])cc1)N1CCCOC1 [Compound 29a, (E)-3-(4-Nitrophenyl)-1-(1,3-oxazinan-3-yl)prop-2-en-1-one]
TGase inhibitory activity (in words): little inhibitory potency | IC50 [3]: > 50 µM | IC50 [4]: > 200 µM

O=C(/C=C/C=C/c1ccc([N+](=O)[O-])cc1)n1nnc2ccccc21 [Compound 37a, (2E,4E)-5-(4-Nitrophenyl)penta-2-4-dienoyl benzotriazolyl amide]
TGase inhibitory activity (in words): Neither of these two extended conjugated compounds showed significant inhibition | IC50 [5]: > 50 µM | IC50 [6]: > 200 µM

O=C(OCc1ccc([N+](=O)[O-])cc1)n1nnc2ccccc21 [Compound 32a, p-Nitrobenzyloxycarbonylbenzotriazole]
TGase inhibitory activity (in words): significant loss of activity | IC50 [5]: > 50 µM | IC50 [6]: > 200 µM

O=C(/C=C/c1ccc([N+](=O)[O-])cc1)c1cn(Cc2cnn[nH]2)nn1 [Compound 4m, (E)-1-(1-((3H-1,2,3-triazol-4-yl)methyl)-1H-1,2,3-triazol-4-yl)-3-(4-nitrophenyl)prop-2-en-1-one]
IC50: 20 to 50 µM | TGase inhibitory activity (in words): relatively higher IC50 value; also recorded: high IC50 | IC50 (read-out: IC50): 33 µM

O=C(/C=C/c1ccc([N+](=O)[O-])cc1)c1cn(Cc2ccc([N+](=O)[O-])cc2)nn1 [Compound 4d, (E)-1-(1-(4-nitrobenzyl)-1H-1,2,3-triazol-4-yl)-3-(4-nitrophenyl)prop-2-en-1-one]
IC50: < 20 µM | TGase inhibitory activity (in words): most efficient inhibitors in the series | mode of inhibition: competitive inhibition | IC50 (read-out: IC50): 2.1 µM

O=C(/C=C/c1ccc([N+](=O)[O-])cc1)c1cn(Cc2ccccn2)nn1 [Compound 4e, (E)-3-(4-nitrophenyl)-1-(1-((pyridin-2-yl)methyl)-1H-1,2,3-triazol-4-yl)prop-2-en-1-one]
IC50: < 20 µM | TGase inhibitory activity (in words): lower potency | IC50 (read-out: IC50): 18 µM

O=C(c1ccc([N+](=O)[O-])cc1)n1nnc2ccccc21 [Compound 34a, p-Nitrobenzoyl benzotriazolyl amide]
IC50 (μM) (Table 2, value in brackets or words): irreversible | mode of inhibition (versus acyl-donor substrate): irreversible inhibitor

CC(C)(C)OC(=O)/C=C/c1ccc([N+](=O)[O-])cc1 [Compound 20a, p-Nitrocinnamoyl t-butyl ester]
TGase inhibitory activity (in words): little inhibitory activity | IC50 [3]: > 50 µM

O=C(C=Cc1ccc([N+](=O)[O-])cc1)N(Cc1ccccc1)Cc1ccccc1 [Compound 26a, p-Nitrocinnamoyl dibenzyl amide]
IC50 [3]: 20 to 50 µM | IC50 [4]: 57 µM | IC50 (read-out: IC50): 57 µM

O=C(/C=C/c1ccc([N+](=O)[O-])cc1)c1cn(C(c2ccccc2)c2ccccc2)nn1 [Compound 4l, (E)-1-(1-benzhydryl-1H-1,2,3-triazol-4-yl)-3-(4-nitrophenyl)prop-2-en-1-one]
IC50: > 50 µM | TGase inhibitory activity (in words): relatively poor activity | IC50 (read-out: IC50): > 100 µM

COc1ccc(/C=C/C(=O)n2nnc3ccccc32)cc1 [Compound 15d, p-Methoxycinnamoyl benzotriazolyl amide]
IC50 [1]: > 50 µM | IC50 [2]: > 100 µM

O=C(CCc1ccc([N+](=O)[O-])cc1)n1nnc2ccccc21 [Compound 33a, p-Nitrohydrocinnamoyl benzotriazolylamide]
TGase inhibitory activity (in words): significant loss of activity | IC50 [5]: > 50 µM | IC50 [6]: > 200 µM

O=C(/C=C/c1ccc([N+](=O)[O-])cc1)c1cn(Cc2ccccc2[N+](=O)[O-])nn1 [Compound 4h, (E)-1-(1-(2-nitrobenzyl)-1H-1,2,3-triazol-4-yl)-3-(4-nitrophenyl)prop-2-en-1-one]
reduction in potency (fold): 4-7 fold | IC50 (IC50 (μM), Table 6, value in brackets): 10.7 µM | IC50 (IC50 (μM), class symbol, Table 6, Huisgen [3+2] cycloaddition products): < 20 µM

O=C(/C=C/c1ccc(Cl)cc1)n1nnc2ccccc21 [Compound 15k, p-Chlorocinnamoyl benzotriazolyl amide]
IC50 [1]: > 50 µM | IC50 [2]: > 100 µM

O=C(/C=C/c1ccc([N+](=O)[O-])cc1)c1cn(Cc2c(F)c(F)c(F)c(F)c2F)nn1 [Compound 4i]
IC50: > 50 µM

CC(C)(C)OC(=O)Nc1cccc(C=CC(=O)n2nnc3ccccc32)c1 [Compound 15o, m-(tert-Butoxycarbonylamino)cinnamoyl benzotriazolyl amide]
IC50 [1]: 20 to 50 µM | IC50 [2]: 39 µM

O=C(/C=C/c1ccc([N+](=O)[O-])cc1)c1cn(C2CCCC2)nn1 [Compound 4c, (E)-1-(1-cyclopentyl-1H-1,2,3-triazol-4-yl)-3-(4-nitrophenyl)prop-2-en-1-one]
IC50: > 50 µM | TGase inhibitory activity (in words): relatively poor activity | IC50 (read-out: IC50): > 100 µM

O=C(C=Cc1cccc(Cl)c1)On1nnc2ccccc21 [Compound 14l, m-Chlorocinnamoyl oxybenzotriazolyl amide]
IC50 [1]: 20 to 50 µM | IC50 [2]: 41 µM | IC50 (read-out: IC50): 41 µM

CC(=O)Nc1ccc(/C=C/C(=O)c2cccnc2)cc1 [Compound 30t, (E)-3-(4-acetylaminophenyl)-1-(pyridin-3-yl)prop-2-en-1-one]
TGase inhibitory activity (in words): as effective as the benzotriazolyl amide inhibitors | IC50 [1]: 20 to 50 µM | IC50 [2]: 28 µM

Cc1ccc(/C=C/C(=O)n2nnc3ccccc32)cc1 [Compound 15g, p-Methylcinnamoyl benzotriazolyl amide]
IC50 [1]: > 50 µM | IC50 [2]: > 100 µM

O=C(/C=C/c1ccc([N+](=O)[O-])cc1)c1cn(Cc2ccccc2)nn1 [Compound 4a, (E)-1-(1-benzyl-1H-1,2,3-triazol-4-yl)-3-(4-nitrophenyl)prop-2-en-1-one]
IC50: < 20 µM | IC50 (read-out: IC50): 4.3 µM

O=C(/C=C/c1ccc([N+](=O)[O-])cc1)Nc1ccccc1 [Compound 22a, p-Nitrocinnamoyl phenyl amide]
IC50 [3]: > 50 µM

COc1ccc(Cn2cc(C(=O)/C=C/c3ccc([N+](=O)[O-])cc3)nn2)cc1 [Compound 4n, (E)-1-(1-(4-methoxybenzyl)-1H-1,2,3-triazol-4-yl)-3-(4-nitrophenyl)prop-2-en-1-one]
IC50: < 20 µM | IC50 (read-out: IC50): 14 µM

CC(C)(C)OC(=O)Nc1ccc(C=CC(=O)n2nnc3ccccc32)cc1 [Compound 15n, p-(tert-Butoxycarbonylamino)cinnamoyl benzotriazolyl amide]
IC50 [1]: < 20 µM | IC50 [2]: 18 µM

O=C(/C=C/c1ccc([N+](=O)[O-])cc1)c1cccnc1 [Compound 30a, (E)-3-(4-nitrophenyl)-1-(pyridin-3-yl)prop-2-en-1-one]
TGase inhibitory activity (in words): as effective as the benzotriazolyl amide inhibitors | IC50 [1]: 20 to 50 µM | IC50 [2]: 21 µM

O=C(/C=C/c1ccccc1)n1nnc2ccccc21 [Compound 15j, Cinnamoyl benzotriazolyl amide]
IC50 [1]: > 50 µM | IC50 [2]: > 100 µM

COc1ccccc1/C=C/C(=O)n1nnc2ccccc21 [Compound 15f, o-Methoxycinnamoyl benzotriazolyl amide]
IC50 [1]: > 50 µM | IC50 [2]: > 100 µM
